The values below come from US20120115852A1, “HETEROCYCLIC COMPOUNDS AS AUTOTAXIN INHIBITORS” (Merck Patent Gesellschaft Mit Beschrankter Haftung, priority 2009, published 2012).

This experiment has as its target T1, recombinant autotaxin (Homo sapiens, UniProt Q13822).
T1 construct: made in house; host or cells: Hi5 insect cells (baculovirus)
Description: Autotaxin test (enzyme test), Amplex Red fluorescence with LPC substrate. Format: biochemical. As to conditions: autotaxin inhibition (enzyme test); for remaining activity at 10 µM: 10 μM compound, read-out: % Control at 10 μM. A digest of the protocol:
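Purified recombinant autotaxin (baculovirus Hi5-expressed) pre-incubated with compound 30 min at 22° C, then LPC (final 75 μM) added and reacted 90 min at 37° C in Tris pH 8 buffer with CaCl2. Choline released was coupled via alkaline phosphatase, choline oxidase and peroxidase to Amplex Red; resorufin fluorescence read in kinetic mode (ex 485/em 612 nm).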

Molecules are shown by their SMILES. Bounds are passed on as bounds.

As for `N[C@@H](CO)C(=O)N1CCN2C(=O)c3cc(-c4ccc(Cl)cc4F)ccc3NC(=O)[C@H]2C1` [Compound A122, (R)-2-((S)-2-Amino-3-hydroxypropionyl)-7-(4-chloro-2-fluorophenyl)-1,3,4,11a-tetrahydro-2H,10H-2,4a,10-triazadibenzo[a,d]cycloheptene-5,11-dione], the remaining activity at 10 µM is 69%. For the molecule `O=C1Nc2ccc(-c3ccc(Cl)cc3F)cc2C(=O)N2CCN(C(=O)[C@@H]3CCCN3C3CCCNC3)C[C@H]12` (stereo partly drawn) [Compound A123, (R)-7-(4-Chloro-2-fluorophenyl)-2-((S)-1-piperidin-3-ylpyrrolidine-2-carbonyl)-1,3,4,11a-tetrahydro-2H,10H-2,4a,10-triazadibenzo[a,d]cycloheptene-5,11-dione], the remaining activity at 10 µM was 6% and the IC50 fell in the range of 100 to 1000 nM. In the case of `COC[C@H](N)C(=O)N1CCN2C(=O)c3cc(-c4ccc(Cl)cc4F)ccc3NC(=O)[C@H]2C1` [Compound A124, (R)-2-((S)-2-Amino-3-methoxypropionyl)-7-(4-chloro-2-fluorophenyl)-1,3,4,11a-tetrahydro-2H,10H-2,4a,10-triazadibenzo[a,d]cycloheptene-5,11-dione], the remaining activity at 10 µM amounted to 39% and the IC50 is greater than 1000 nM. The corresponding values for `CC(C)(C)CC(=O)N1CCN2C(=O)c3cc(-c4ccc(Cl)cc4F)ccc3NC(=O)[C@@H]2C1` [Compound A125, (S)-7-(4-Chloro-2-fluorophenyl)-2-(3,3-dimethyl-butyryl)-1,3,4,11a-tetrahydro-2H,10H-2,4a,10-triazadibenzo[a,d]cycloheptene-5,11-dione] are 25% and greater than 1000 nM. As for `O=C1Nc2ccc(-c3ccc(Cl)cc3F)cc2C(=O)N2CCN(C(=O)[C@@H]3CCCN3C3CCNCC3)C[C@@H]12` [Compound A126, (S)-7-(4-Chloro-2-fluorophenyl)-2-((S)-1-piperidin-4-ylpyrrolidine-2-carbonyl)-1,3,4,11a-tetrahydro-2H,10H-2,4a,10-triazadibenzo[a,d]cycloheptene-5,11-dione], the remaining activity at 10 µM came out at 20% and the concentration for half-maximal inhibition (IC50) is greater than 1000 nM. Regarding `CC(C)(C)CC(=O)N1CCN2C(=O)c3cc(-c4ccc(Cl)nc4)ccc3NC(=O)C2C1` (centres unmarked) [Compound A128, 7-(6-Chloropyridin-3-yl)-2-(3,3-dimethylbutyryl)-1,3,4,11a-tetrahydro-2H,10H-2,4a,10-triaza-dibenzo[a,d]cycloheptene-5,11-dione], the remaining activity at 10 µM amounted to 42% and the IC50 was greater than 1000 nM. For the molecule `CC(C)(C)CC(=O)N1CCN2C(=O)c3cc(-c4ccc(Cl)s4)ccc3NC(=O)C2C1` (centres unmarked) [Compound A129, 7-(5-Chlorothiophen-2-yl)-2-(3,3-dimethylbutyryl)-1,3,4,11a-tetrahydro-2H,10H-2,4a,10-triaza-dibenzo[a,d]cycloheptene-5,11-dione], the remaining activity at 10 µM amounted to 6% and the IC50 was greater than 1000 nM. As to `CC(C)(C)CC(=O)N1CCN2C(=O)c3cc(-c4ccc(F)cc4)ccc3NC(=O)C2C1` (centres unmarked) [Compound A130, 2-(3,3-Dimethylbutyryl)-7-(4-fluorophenyl)-1,3,4,11a-tetrahydro-2H,10H-2,4a,10-triaza-dibenzo[a,d]cycloheptene-5,11-dione], the remaining activity at 10 µM is -1% and the IC50 was greater than 1000 nM. Take `CC(C)(C)CC(=O)N1CCN2C(=O)c3cc(-c4ccccc4)ccc3NC(=O)C2C1` (centres unmarked) [Compound A131, 2-(3,3-Dimethylbutyryl)-7-phenyl-1,3,4,11a-tetrahydro-2H,10H-2,4a,10-triaza-dibenzo[a,d]cycloheptene-5,11-dione]: the remaining activity at 10 µM amounted to 14% and the IC50 was greater than 1000 nM. With `CC(C)(C)CC(=O)N1CCN2C(=O)c3cc(-c4ccc(C#N)cc4)ccc3NC(=O)C2C1` (centres unmarked) [Compound A132, 4-[2-(3,3-Dimethylbutyryl)-5,11-dioxo-1,2,3,4,5,10,11,11a-octahydro-2,4a,10-triaza-dibenzo[a,d]cyclohepten-7-yl]benzonitrile], the remaining activity at 10 µM is 84%. In the case of `CC(C)(C)CC(=O)N1CCN2C(=O)c3cc(OC(F)(F)F)ccc3NC(=O)C2C1` (centres unmarked) [Compound A133, 2-(3,3-Dimethylbutyryl)-7-trifluoromethoxy-1,3,4,11a-tetrahydro-2H,10H-2,4a,10-triaza-dibenzo[a,d]cycloheptene-5,11-dione], the remaining activity at 10 µM came out at 27% and the IC50 is greater than 1000 nM. Consider `CN(C)CCN1C(=O)C2CN(C(=O)CC(C)(C)C)CCN2C(=O)c2cc(-c3ccc(Cl)cc3)ccc21` (centres unmarked) [Compound A134, 7-(4-Chlorophenyl)-10-(2-dimethylaminoethyl)-2-(3,3-dimethylbutyryl)-1,3,4,11a-tetrahydro-2H,10H-2,4a,10-triazadibenzo[a,d]cycloheptene-5,11-dione], for which the remaining activity at 10 µM was -19% and the IC50 is greater than 1000 nM. For the molecule `COCCN1C(=O)C2CN(C(=O)CC(C)(C)C)CCN2C(=O)c2cc(-c3ccc(Cl)cc3)ccc21` (centres unmarked) [Compound A135, 7-(4-Chlorophenyl)-2-(3,3-dimethylbutyryl)-10-(2-methoxyethyl)-1,3,4,11a-tetrahydro-2H,10H-2,4a,10-triazadibenzo[a,d]cycloheptene-5,11-dione], the remaining activity at 10 µM is -9% and the IC50 was greater than 1000 nM. In the case of `O=C1Nc2ccc(-c3ccc(Cl)cc3)cc2C(=O)N2CCN(C(=O)C(F)(F)F)CC12` (centres unmarked) [Compound A136, 7-(4-Chlorophenyl)-2-(2,2,2-trifluoroacetyl)-1,3,4,11a-tetrahydro-2H,10H-2,4a,10-triazadibenzo-[a,d]cycloheptene-5,11-dione], the remaining activity at 10 µM came to 63%. Turning to `CC(C)(C)[C@H](N)C(=O)N1CCN2C(=O)c3cc(-c4ccc(Cl)cc4)ccc3NC(=O)C2C1` (stereo partly drawn) [Compound A137, 2-((S)-2-Amino-3,3-dimethylbutyryl)-7-(4-chloro-phenyl)-1,3,4,11a-tetrahydro-2H,10H-2,4a,10-triazadibenzo[a,d]cycloheptene-5,11-dione], the remaining activity at 10 µM is -18% and the IC50 was greater than 1000 nM.

Take `CO[C@H](C(=O)N1CCN2C(=O)c3cc(-c4ccc(Cl)cc4)ccc3NC(=O)C2C1)C(C)(C)C` (stereo partly drawn) [Compound A138, 7-(4-Chlorophenyl)-2-((S)-2-methoxy-3,3-dimethyl-butyryl)-1,3,4,11a-tetrahydro-2H,10H-2,4a,10-triazadibenzo[a,d]cycloheptene-5,11-dione]: the remaining activity at 10 µM is -21% and the IC50 is 100 to 1000 nM. As for `CC(C)(C)CC(=O)N1CCN2C(=O)c3cc(-c4ccc(Cl)cc4)cnc3NC(=O)C2C1` (centres unmarked) [Compound A139, 3-(4-Chlorophenyl)-8-(3,3-dimethylbutyryl)-7,8,9,9a-tetrahydro-6H,11H-1,5a,8,11-tetraazadibenzo-[a,d]cycloheptene-5,10-dione], the remaining activity at 10 µM was 45% and the IC50 is greater than 1000 nM. With `C#Cc1ccc(-c2ccc3c(c2)C(=O)N2CCN(C(=O)CC(C)(C)C)CC2C(=O)N3)cc1` (centres unmarked) [Compound A140, 2-(3,3-Dimethylbutyryl)-7-(4-ethynylphenyl)-1,3,4,11a-tetrahydro-2H,10H-2,4a,10-triaza-dibenzo[a,d]cycloheptene-5,11-dione], the remaining activity at 10 µM was -10% and the 50% inhibitory concentration (IC50) was greater than 1000 nM. The like results for `CC1(C)SCNC1C(=O)N1CCN2C(=O)c3cc(-c4ccc(Cl)cc4)ccc3NC(=O)C2C1` (centres unmarked) [Compound A141, 7-(4-Chlorophenyl)-2-(5,5-dimethylthiazolidine-4-carbonyl)-1,3,4,11a-tetrahydro-2H,10H-2,4a,10-triazadibenzo[a,d]cycloheptene-5,11-dione] were, in that order, -21% and 100 to 1000 nM. Consider `CC(C)(C)CC(=O)N1CCN2C(=O)c3cc(Br)ccc3NC(=O)C2C1` (centres unmarked) [Compound A142], for which the remaining activity at 10 µM worked out at 85%. Take `CC(C)(C)CC(=O)N1CCN2C(=O)c3cc(-c4ccc(Cl)cc4F)ccc3N(CCN3CCOCC3)C(=O)C2C1` (centres unmarked) [Compound A143]: the remaining activity at 10 µM was 3% and the IC50 was in the range of 100 to 1000 nM. Regarding `CN1CCN(C(=O)CN2C(=O)C3CN(C(=O)CC(C)(C)C)CCN3C(=O)c3cc(-c4ccc(Cl)cc4F)ccc32)CC1` (centres unmarked) [Compound A144], the remaining activity at 10 µM was determined as 11% and the IC50 was greater than 1000 nM. As to `CC(C)(C)CC(=O)N1CCN2C(=O)c3cc(-c4ccc(Cl)cc4F)ccc3N(CC(N)=O)C(=O)C2C1` (centres unmarked) [Compound A145], the remaining activity at 10 µM turned out to be 2% and the half-maximal inhibitory concentration (IC50) was 100 to 1000 nM. For the molecule `CC(C)(C)CC(=O)N1CCN2C(=O)c3cc(-c4ccc(Cl)cc4F)ccc3N(CCC3CCNCC3)C(=O)C2C1` (centres unmarked) [Compound A146], the remaining activity at 10 µM amounted to 10% and the half-inhibitory concentration (IC50) is greater than 1000 nM. The like results for `CC(C)(C)CC(=O)N1CCN2C(=O)c3cc(-c4ccc(Cl)cc4F)ccc3N(CC3CCNCC3)C(=O)C2C1` (centres unmarked) [Compound A147] were, in that order, 62% and greater than 1000 nM. On to `CC(C)(C)CC(=O)N1CCN2C(=O)c3cc(-c4ccc(Cl)cc4F)ccc3N(CCN3CCOCC3)C(=O)[C@H]2C1` [Compound A148], for which the remaining activity at 10 µM turned out to be 10% and the IC50 was greater than 1000 nM. `CN1CCN(C(=O)CN2C(=O)[C@H]3CN(C(=O)CC(C)(C)C)CCN3C(=O)c3cc(-c4ccc(Cl)cc4F)ccc32)CC1` [Compound A149]: the remaining activity at 10 µM was 15% and the IC50 was greater than 1000 nM. The like results for `CC(C)(C)CC(=O)N1CCN2C(=O)c3cc(-c4ccc(Cl)cc4F)ccc3N(CC(N)=O)C(=O)[C@H]2C1` [Compound A150] were, in that order, 3% and 100 to 1000 nM. With `CN(C)CCN1C(=O)[C@H]2CN(C(=O)CC(C)(C)C)CCN2C(=O)c2cc(-c3ccc(Cl)cc3F)ccc21` [Compound A151], the remaining activity at 10 µM was determined as 16% and the IC50 was greater than 1000 nM. As for `CC(C)(C)CC(=O)N1CCN2C(=O)c3cc(-c4ccc(Cl)cc4F)ccc3N(CCO)C(=O)[C@H]2C1` [Compound A152], the remaining activity at 10 µM turned out to be 3% and the half-inhibitory concentration (IC50) lay in the range of 100 to 1000 nM.

By IC50 is commonly meant the concentration at which inhibition is half-maximal.
